Data taken from paper PMC5865291, “A fast and sensitive activity assay for lytic polysaccharide monooxygenase” (Biotechnology for Biofuels, 2018).

Target: T1, NcLPMO9F (Neurospora crassa, UniProt Q1K4Q1)
T1 construct: gene gh61-6; recombinant secreted from Pichia pastoris X-33, column purified; 23,200 g/mol
T1 sequence (Q1K4Q1 18-231): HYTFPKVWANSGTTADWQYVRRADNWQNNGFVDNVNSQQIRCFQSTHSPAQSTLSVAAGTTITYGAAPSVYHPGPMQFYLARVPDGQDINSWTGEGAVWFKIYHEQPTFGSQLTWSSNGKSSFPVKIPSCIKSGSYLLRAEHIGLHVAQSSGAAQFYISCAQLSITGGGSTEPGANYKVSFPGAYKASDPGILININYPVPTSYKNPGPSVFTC
Test: spectrophotometric peroxidase assay at […] nm (coerulignone formation)
Assay type: biochemical
Details: H2O2 cosubstrate, standard conditions (30 °C); turnover only

COc1cccc(OC)c1O [2,6-dimethoxyphenol]
specific activity: The peroxidase activity was found for three different LPMOs from two different organisms
